{"source": "patent US20230108050A1", "about": "“CXCL8 (INTERLEUKIN-8) ACTIVITY INHIBITOR AND CORTICOSTEROID COMBINATION AND PHARMACEUTICAL COMPOSITION AND USE THEREOF” (Dompe' farmaceutici SpA, priority 2020, published 2023)", "format_in_all_cases": "in vivo, BALB/c mice", "key": {"[1]": {"test_system": "Th17 glucocorticoid-insensitive asthma mouse model", "assay": "Histological analysis of lung, pulmonary inflammation score, Example 1d", "details": "ladarixin 10 mg/Kg oral, dexamethasone 5 mg/Kg s.c.; six grade scale 0-5; FIG. 4D, FIG. 3", "experimental": "In details, BALB/c mice received systemic immunization by subcutaneous injection of 20 μg of chicken egg ovalbumin (OVA grade V, >98% pure; Sigma, St Louis, Mo.) in saline, emulsified in 75 μL CFA (Sigma-Aldrich) at day 0. […]\nSemiquantitative histopathology analyses were performed as described (Campa C C et al., Nat Commun (2018), v. 9, p. 5232). Briefly, ten random images per lung were acquired at 200× and pulmonary inflammation score was recorded according to a six grade scale where “0” corresponded to less than 1% of lung tissue area inflamed, “1” where up to 9% of lung area was affected by inflammation, “2” when 10% to 29% of lung tissue area was affected, “3” if 30% to 49% of lung tissue area was affected, “4” if 50% to 69% of lung tissue area was affected and “5” if more than 70% of the lung tissue area was affected by inflammation.\nAfter BALF, left lung was removed and fixed in formalin 4% in PBS (pH 7.4), as previously described. […] Photomicrographs were obtained at 400× magnification and were analyzed using the software Image Pro Plus (Image-Pro Plus 4.1, Media Cybernetics, USA) under light microscopy. […]"}, "[2]": {"test_system": "Th17 glucocorticoid-insensitive asthma mouse model", "assay": "Leukocytes and protein leakage in airways (BALF), Example 1a", "details": "day 28-31, OVA aerosol", "description": "(§1) The investigation was conducted by using a Th17 glucocorticoid-insensitive asthma mouse model previously described (Campa C C et al., Nat Commun (2018), v. 9, p. 5232 and Dejager Let al., Mucosal Immunol (2015), v. 8, p 1212-25).\n(§2) In details, BALB/c mice received systemic immunization by subcutaneous injection of 20 μg of chicken egg ovalbumin (OVA grade V, >98% pure; Sigma, St Louis, Mo.) in saline, emulsified in 75 μL CFA (Sigma-Aldrich) at day 0.\n(§3) From day 28 after first immunization to day 31, mice were treated with PBS (vehicle), ladarixin, dexamethasone or ladarixin/dexamethasone as described below, and 60 minutes later exposed to aerosolized ovalbumin (1% in saline) for 20 minutes per day. Ladarixin was administered orally by gavage (10 mg/Kg in saline 0.9%), as previously described (Bertini et al., Br J Pharmacol (2012), v. 165, p. 436-54), once a day. Dexamethasone was administered subcutaneously (5 mg/Kg in saline), once a day.\nAn assessment of total leukocytes content in airways was carried out by performing bronchoalveolar lavage fluid (BALF) as previously described (Russo et al Am J Respir Cell Mol Biol (2009), v. 40, p. 410-21; Campa C C et al., Nat Commun (2018), v. 9, p. 5232). Briefly, an incision was made in the trachea where a 1.7 mm outside diameter polyethylene catheter was inserted. Then, the airways were washed 2 times with 1 mL of phosphate buffer saline (PBS). The samples were centrifuged at 300×g for 10 minutes at 4° C., the pellet was collected, resuspended in 100 μL of 3% BSA in PBS and a sample from this solution was used to assess the total leukocytes in the airways. The remaining was centrifuged at 300×g for 10 minutes at 4° C. on a histology glass slide to assess differential counting of macrophages, lymphocytes, eosinophils and neutrophils using an optical microscopy. Total protein was quantified in the BALF supernatant using a Bio-Rad protein assay Dye Reagent (Bio-Rad, USA) to measure possible protein leakage as previously described (Campa C C et al., Nat Commun (2018), v. 9, p. 5232)."}, "[3]": {"test_system": "Th17 glucocorticoid-insensitive asthma mouse model", "assay": "Cytokines quantification in lung tissue (ELISA), Example 1b", "details": "ladarixin 10 mg/Kg oral, dexamethasone 5 mg/Kg s.c., lung lysate ELISA", "description": "as §1, §2, §3\nThe levels of IL17A and TNF-α were also measured in the different experimental mice groups. […] Levels of IL-17A and TNF-α were measured by ELISA using commercial DuoSet kits from R&D Systems, according to the instructions of the manufacturer. Results, shown in FIG. 2, are expressed as pg of cytokines per ml of lung lysate (pg/ml)."}, "[4]": {"test_system": "Th17 glucocorticoid-insensitive asthma mouse model", "assay": "Assessment of pulmonary mechanics, Example 1e", "details": "ladarixin 10 mg/Kg oral, dexamethasone 5 mg/Kg s.c.; FIG. 5B", "description": "as §1, §2, §3\nMice form different experimental groups were anesthetized with a subcutaneous injection of ketamine and xylazine (130 mg/Kg ketamine and 8.5 mg/Kg xylazine) to maintain spontaneous breathing under anesthesia. […] Under mechanical respiration the Dynamic Compliance (Cdyn) and Lung Resistance (RI) were determined by Resistance and Compliance RC test. […]"}, "[5]": {"test_system": "Th17 glucocorticoid-insensitive asthma mouse model", "assay": "Neutrophil peroxidase activity (MPO) in lung tissue, Example 1c", "details": "ladarixin 10 mg/Kg oral, dexamethasone 5 mg/Kg s.c.; after OVA exposure; FIG. 4A", "experimental": "MPO assay was performed on the lung tissue in the different experimental mice groups. In details, MPO assay was performed in a 96-well microplate by adding, in each well, 25 μL of 3,3′-5,5′-tetramethylbenzidine (TMB Sigma) diluted in dimethyl sulfoxide (DMSO; Merck, Darmstadt, Germany) at a final concentration of 1.6 mM; 100 μL of H2O2 0.02% vol/vol in PBS (pH 5.4) containing HTAB and 25 μL of processed tissue supernatant. The reaction started, at 37° C., by adding the TMB solution and the supernatant to the microplate and, after 5 min, H2O2 was added followed by a new incubation at 37° C. for 5 min. The reaction was stopped by adding 100 μL of H2SO4 1M and quantified at 450 nm wavelengths in a spectrophotometer (VERSA max, Molecular Devices, CA)."}}}
{"smiles": "C[C@@H](C(=O)NS(C)(=O)=O)c1ccc(OS(=O)(=O)C(F)(F)F)cc1", "note": "[ladarixin]", "values": [{"measurement": "pulmonary inflammation score (lung histology)", "setting": "[1]", "result": "effective in reducing inflammation"}, {"measurement": "total leukocyte influx into alveolar space (BALF)", "setting": "[2]; ladarixin 10 mg/Kg oral once a day, dexamethasone 5 mg/Kg s.c. once a day, FIG. 1A", "result": "reduces total leukocyte influx"}, {"measurement": "macrophages infiltrated into airways (BALF)", "setting": "[2]; ladarixin 10 mg/Kg oral, dexamethasone 5 mg/Kg s.c., FIG. 1B", "result": "marked reduction"}, {"measurement": "neutrophils infiltrated into airways (BALF)", "setting": "[2]; ladarixin 10 mg/Kg oral, dexamethasone 5 mg/Kg s.c., FIG. 1C", "result": "marked reduction"}, {"measurement": "eosinophil recruitment into the airways (BALF)", "setting": "[2]; ladarixin 10 mg/Kg oral, dexamethasone 5 mg/Kg s.c., FIG. 1D", "result": "increased"}, {"measurement": "TNF-α level in lung parenchyma", "setting": "[3]; FIG. 2A", "result": "significantly decreased"}, {"measurement": "IL-17A level in lung parenchyma", "setting": "[3]; FIG. 2B", "result": "significantly decreased"}, {"measurement": "airway hyperreactivity evoked by methacholine (ΔRI)", "setting": "[4]", "result": "able to reduce airway hyperreactivity"}, {"measurement": "neutrophil accumulation in lung parenchyma (MPO activity)", "setting": "[5]", "result": "able to prevent the neutrophil accumulation"}]}
